In this experiment the target is T1, human GLP-1 receptor (Homo sapiens, UniProt P43220).
T1 construct: expressed in transfected cells
T1 sequence (P43220 24-463): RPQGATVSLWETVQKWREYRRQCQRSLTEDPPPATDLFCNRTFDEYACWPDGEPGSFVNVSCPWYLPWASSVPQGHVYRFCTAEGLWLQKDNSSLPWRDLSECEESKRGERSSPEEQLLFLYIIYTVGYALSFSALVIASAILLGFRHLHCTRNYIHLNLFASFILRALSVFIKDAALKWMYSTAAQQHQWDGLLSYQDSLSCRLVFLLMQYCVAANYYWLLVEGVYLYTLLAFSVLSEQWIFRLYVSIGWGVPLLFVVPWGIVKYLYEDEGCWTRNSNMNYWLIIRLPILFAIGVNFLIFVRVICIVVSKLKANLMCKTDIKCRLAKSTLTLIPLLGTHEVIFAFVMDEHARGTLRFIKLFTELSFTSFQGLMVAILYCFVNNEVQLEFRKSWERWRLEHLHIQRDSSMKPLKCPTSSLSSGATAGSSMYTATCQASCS
The experiment is described as follows: GLP-1R cAMP Assay. It is filed as cell-based. The following applies: cAMP accumulation in CHO cells stably overexpressing the human GLP-1 receptor; 30 min treatment; HitHunter cAMP kit; read-out: EC50. The protocol: cAMP accumulation was measured in Chinese hamster ovary (CHO) cells stably overexpressing the human GLP-1 receptor using the HitHunter cAMP Assay for Small Molecules Kit (Eurofins). Briefly, cells were grown in Ham's F12 Nutrient Mix with 10% FBS, and lifted with Cell Dissociation Buffer, Enzyme free, PBS based (ThermoFisher). […] The anti-cAMP antibody reagent was then added to cells at a 1:2 ratio and 5 μL of mixture was seeded in 384-well small volume white assay plates, at 10,000 cells/well. Cells were then treated with 50 nL compound using an ECHO 550 acoustic dispenser (Labcyte) in a 20-point dose response format in triplicate for 30 min. Cells were then lysed, and detection reagents added according to the manufacturer's protocol. After overnight incubation, luminescence was measured using a Perkin Elmer Envision plate reader. Dose response curves were analyzed using GraphPad Prism 9.0.
In the case of `CCn1cncc1Cn1c(CN2CCC(C(O)c3cccc(COc4ccc(C)cc4Cl)c3)CC2)nc2ccc(C(=O)O)cc21` (racemic) [Example 130, 2-((4-((3-((2-Chloro-4-methylphenoxy)methyl)phenyl)(hydroxy)methyl)piperidin-1-yl)methyl)-1-((1-ethyl-1H-imidazol-5-yl)methyl)-1H-benzo[d]imidazole-6-carboxylic acid], the EC50 is under 50 nM.
As to `CCn1cncc1Cn1c(CN2CCC(C(F)c3cccc(COc4ccc(C)cc4Cl)c3)CC2)nc2ccc(C(=O)O)cc21` (racemic) [Example 131, 2-((4-((3-((2-Chloro-4-methylphenoxy)methyl)phenyl)fluoromethyl)piperidin-1-yl)methyl)-1-((1-ethyl-1H-imidazol-5-yl)methyl)-1H-benzo[d]imidazole-6-carboxylic acid], the EC50 was under 50 nM.
As for `CC(Oc1ccc(C#N)cc1F)c1nccc(OC2CCN(Cc3nc4ccc(C(=O)O)cc4n3C[C@@H]3CCO3)CC2)n1` (mixture of isomers) [Example 480, 2-((4-((2-(1-(4-Cyano-2-fluorophenoxy)ethyl)pyrimidin-4-yl)oxy)piperidin-1-yl)methyl)-1-(((S)-oxetan-2-yl)methyl)-1H-benzo[d]imidazole-6-carboxylic acid], the EC50 fell in the range of 50 to 500 nM.
`C[C@@H](Oc1ccc(Cl)cc1Cl)c1ccc(C(=O)N2CCN(Cc3nc4ccc(C(=O)O)cc4n3C[C@@H]3CCO3)CC2)o1` (relative stereo) [Example 94, 2-((4-(5-((R)-1-(2,4-dichlorophenoxy)ethyl)furan-2-carbonyl)piperazin-1-yl)methyl)-1-(((S)-oxetan-2-yl)methyl)-1H-benzo[d]imidazole-6-carboxylic acid]: the EC50 is over 500 nM.
In the case of `CCn1cncc1Cn1c(CN2CCC([C@H](F)c3cccc(COc4ccc(Cl)cc4Cl)c3)CC2)nc2ccc(C(=O)O)cc21` (single isomer, unassigned) [Compound 202], the EC50 is under 50 nM.
For the compound `CCn1cncc1Cn1c(CN2CCC([C@@H](F)c3cccc(COc4ccc(Cl)cc4Cl)c3)CC2)nc2ccc(C(=O)O)cc21` (single isomer, unassigned) [Compound 203], the EC50 is under 50 nM.
In the case of `C[C@H](Oc1ccc(Cl)cc1Cl)c1ccc(C(=O)N2CCN(Cc3nc4ccc(C(=O)O)cc4n3C[C@@H]3CCO3)CC2)o1` (single isomer, unassigned) [Example 96], the EC50 is over 500 nM.
For the compound `CCn1cncc1Cn1c(CN2CCC([C@@H](OC)c3cccc(COc4ccc(Cl)cc4Cl)c3)CC2)nc2ccc(C(=O)O)cc21` (single isomer, unassigned) [Example 204], the EC50 lay within 50 to 500 nM.
As for `CCn1cncc1Cn1c(CN2CCC([C@H](OC)c3cccc(COc4ccc(Cl)cc4Cl)c3)CC2)nc2ccc(C(=O)O)cc21` (single isomer, unassigned) [Example 205], the EC50 is 50 to 500 nM.
In the case of `O=C(O)c1ccc2nc(CN3CCN(C(=O)c4cccc(Cc5ccc(F)cc5)c4)CC3)n(C[C@@H]3CCO3)c2c1` [Compound 3, 2-[(4-{3-[(4-fluorophenyl)methyl]benzoyl}piperazin-1-yl)methyl]-1-{[(2S)-oxetan-2-yl]methyl}-1H-1,3-benzodiazole-6-carboxylic acid], the EC50 is over 500 nM.
As to `N#Cc1ccccc1Oc1ccccc1C(=O)N1CCN(Cc2nc3ccc(C(=O)O)cc3n2C[C@@H]2CCO2)CC1` [Compound 4, 2-({4-[2-(2-cyanophenoxy)benzoyl]piperazin-1-yl}methyl)-1-{[(2S)-oxetan-2-yl]methyl}-1H-1,3-benzodiazole-6-carboxylic acid], the EC50 is over 500 nM.
To `Cc1ccc(Oc2cccc(C(=O)N3CCN(Cc4nc5ccc(C(=O)O)cc5n4C[C@@H]4CCO4)CC3)c2)cc1` [Compound 5, 2-({4-[3-(4-methylphenoxy)benzoyl]piperazin-1-yl}methyl)-1-{[(2S)-oxetan-2-yl]methyl}-1H-1,3-benzodiazole-6-carboxylic acid] belongs over 500 nM.
`COc1ccc(Oc2cccc(C(=O)N3CCN(Cc4nc5ccc(C(=O)O)cc5n4C[C@@H]4CCO4)CC3)c2)cc1` [Compound 6, 2-({4-[3-(4-methoxyphenoxy)benzoyl]piperazin-1-yl}methyl)-1-{[(2S)-oxetan-2-yl]methyl}-1H-1,3-benzodiazole-6-carboxylic acid]: the EC50 is over 500 nM.
In the case of `O=C(O)c1ccc2nc(CN3CCN(C(=O)c4cccc(Oc5ccc(Cl)cc5)c4)CC3)n(C[C@@H]3CCO3)c2c1` [Compound 7, 2-({4-[3-(4-chlorophenoxy)benzoyl]piperazin-1-yl}methyl)-1-{[(2S)-oxetan-2-yl]methyl}-1H-1,3-benzodiazole-6-carboxylic acid], the EC50 was over 500 nM.
With `Cc1c(Cl)cccc1OCc1ccc(CN2CCN(Cc3nc4ccc(C(=O)O)cc4n3C[C@@H]3CCO3)CC2)o1` [Compound 8, 2-{[4-({5-[(3-chloro-2-methylphenoxy)methyl]furan-2-yl}methyl)piperzin-1-yl]methyl}-1-{[(2S)-oxetan-2-yl]methyl}-1H-1,3-benzodiazole-6-carboxylic acid], the EC50 fell in the range of 50 to 500 nM.
On to `O=C(O)c1ccc2nc(CN3CCN(Cc4ccc(COc5ccc(Cl)cc5Cl)o4)CC3)n(C[C@@H]3CCO3)c2c1` [Compound 9, 2-{[4-({5-[(2,4-dichlorophenoxy)methyl]furan-2-yl}methyl)piperzin-1-yl]methyl}-1-{[(2S)-oxetan-2-yl]methyl}-1H-1,3-benzodiazole-6-carboxylic acid], for which the EC50 lay within 50 to 500 nM.
To `O=C(O)c1ccc2nc(CN3CCN(C(=O)c4cccc(Oc5cc(Cl)ccc5Cl)c4)CC3)n(C[C@@H]3CCO3)c2c1` [Compound 11, 2-({4-[3-(2,5-dichlorophenoxy)benzoyl]piperazin-1-yl}methyl)-1-{[(2S)-oxetan-2-yl]methyl}-1H-1,3-benzodiazole-6-carboxylic acid] belongs over 500 nM.
The result for `O=C(O)c1ccc2nc(CN3CCN(C(=O)c4cccc(Oc5cc(Cl)ccc5F)c4)CC3)n(C[C@@H]3CCO3)c2c1` [Compound 12, 2-({4-[3-(5-chloro-2-fluorophenoxy)benzoyl]piperazin-1-yl}methyl)-1-{[(2S)-oxetan-2-yl]methyl}-1H-1,3-benzodiazole-6-carboxylic acid] reads over 500 nM; that for `O=C(O)c1ccc2nc(CN3CCN(C(=O)c4cccc(Oc5ccc(F)cc5)c4)CC3)n(C[C@@H]3CCO3)c2c1` [Compound 13, 2-({4-[3-(4-fluorophenoxy)benzoyl]piperazin-1-yl}methyl)-1-{[(2S)-oxetan-2-yl]methyl}-1H-1,3-benzodiazole-6-carboxylic acid], over 500 nM.
As for `Cc1ccc(Oc2cccc(C(=O)N3CCN(Cc4nc5ccc(C(=O)O)cc5n4C[C@@H]4CCO4)CC3)c2)c(Cl)c1` [Compound 15, 2-({4-[3-(2-chloro-4-methylphenoxy)benzoyl]piperazin-1-yl}methyl)-1-{[(2S)-oxetan-2-yl]methyl}-1H-1,3-benzodiazole-6-carboxylic acid], the EC50 was 50 to 500 nM.
As for `Cc1ccc(Oc2cccc(C(=O)N3CCN(Cc4nc5ccc(C(=O)O)cc5n4C[C@@H]4CCO4)CC3)c2)c(F)c1` [Compound 16, 2-({4-[3-(2-fluoro-4-methylphenoxy)benzoyl]piperazin-1-yl}methyl)-1-{[(2S)-oxetan-2-yl]methyl}-1H-1,3-benzodiazole-6-carboxylic acid], the EC50 was over 500 nM.
